In experiment [1] the test system is Aβ1-40 secreted from HEK293 cells stably expressing wildtype human APP695 protein (HEK-APPwt cells). The experiment can be described thus: Aβ Cell Based Assay (Aβ1-40 secretion, ELISA). The settings on record: Homo sapiens, HEK293, 6 h, 6 hours incubation, reduction of Aβ1-40 secretion. The method, then: Aβ Cell Based Assay Procedure
In the following assay, the proteolytic activity of BACE in cells exposed to varying concentrations of a compound of interest is measured by observing the amount of Aβ1-40 secreted from HEK293 cells (Human Embryonic Kidney epithelial cell line) stably expressing wildtype human APP695 protein (HEK-APPwt cells).
HEK-APPwt cells were grown in high glucose DMEM (Dulbecco's Modified Eagles Medium SIGMA Cat.# D5796) supplemented with 25 mM HEPES (4-(2-hydroxyethyl)-1-piperazineethanesulfonic acid) (pH 7.4) (Invitrogen Cat.# 15630-114), 0.1 mM NEAA (Non-essential Amino Acids) (BioWhittaker Cat. #13-114E), 10% fetal bovine serum (SIGMA Cat. #F4135) and 250 μg/mL hygromycin (Invitrogen Cat. #10687-010) in T-225 flasks at 37° C. with 5% CO2 and humidity control.
Test compounds were initially prepared in DMSO and diluted with DMEM media containing 2% FBS (Fetal bovine serum). Ten standard compound solutions were prepared having a range of concentrations. The standard compound solutions were used to determine the EC50 of the test compound. The range of concentrations chosen may depend on the compound's predicted potency.
To prepare the cells for the assay, a flask containing HEK-APPwt cells were trypsinized briefly (1 mL trypsin), and once the cells detached, 4 mL of 10% FBS-DMEM was added to the flask. The detached cells were centrifuged at 900 rpm for 5 min to form a pellet.
The HEK-APPwt cell pellet was re-suspended with 10 mL DMEM media containing 2% FBS. 80 μL of the cell suspension was added to each well of a 96-well cell culture plate to give 100×10^4cells/ml. 10 μL of a standard compound solution was added to each well of the 96-well cell culture plate followed by 10 μL of Alamar blue solution. The cells were incubated at 37° C. in a 5% CO2 incubator for 6 hours.
At the end of the incubation, the plates were removed from incubator, and the supernatant was collected. A≈1-40 concentration in the medium was measured by using a commercial Aβ1-X ELISA kit (IBL, Japan Cat. #27729). Briefly, the ELISA plates were coated with an anti-human AO (N)(82E1) mouse IgG monoclonal antibody. A horseradish peroxidase conjugated anti-human Aβ11-28 mouse IgG monoclonal antibody was used for detection. The cell culture supernatant was diluted with EIA buffer +protease inhibitors (kit buffer containing protease inhibitors (1 mL PI/30 mL buffer)). A 100 μL aliquot of the diluted supernatant was added to each well of the ELISA plate and incubated for 6 hrs at 4° C. The ELISA plate was washed 8 times with phosphate buffered saline (PBS) containing 0.05% Tween 20.
A 100 μL of detection antibody was then added and incubated for 1 hour at 4° C. The plate was washed 8 times with PBS buffer containing 0.05% Tween 20 followed by addition of 100 μL of the chromogen tetramethylbenzidine (TMB). The plate was incubated in the dark at room temperature for about 30 min and a stop solution (1N H2SO4) was added.
The intensity of the color developed was measured at 450 nm. The optical density at 450 nm (OD450) is proportional to the concentration of human Aβ1-40 secreted by the cell. As a reference, N-[N-(3,5-difluorophenacetyl-L-alanyl)]-S-phenylglycine t-butyl ester (DAPT, a γ-secretase inhibitor) was used to indicate 100% inhibition of BACE activity. Thus, the assay measures the ability of a compound of interest to reduce Aβ1-40 secretion. For select compounds, compound potency is reported in Table 3 as the EC50 by calculating the percent inhibition at all concentration levels and the data were fit with non-linear curve fitting algorithm using GraphPad Prism.
(An ELISA detects its analyte on a solid surface through an enzyme-linked reagent.)

A further experiment concerns the target T1, BACE-1 enzyme (Homo sapiens, UniProt P56817).
T1 construct: purchased R & D Systems 931AS
The experiment can be described thus: BACE Fluorescence Resonance Energy Transfer (FRET) Assay. Type of experiment: biochemical. The note with it: pH 4-4.5, 30 min pre-incubation, about 1.5 hours reaction. The method in brief: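 BACE-1 enzyme pre-incubated 30 min with compound in 7.5% DMSO in 50 mM sodium acetate pH 4-4.5, 0.01% CHAPS, 0.0125% Triton X-100, 0.006% EDTA. Rhodamine/quencher peptide substrate added; ~1.5 h at room temperature, fluorescence read at 540/585 nm. IC50 or percent inhibition at one concentration.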

The values that follow come from patent US20120101093A1, “SUBSTITUTED IMIDAZO[1,2-A]PYRIDINE DERIVATIVES, PHARMACEUTICAL COMPOSITIONS, AND METHODS OF USE AS BETA-SECRETASE INHIBITORS” (HIGH POINT PHARMACEUTICALS, LLC, priority 2009, published 2012).

Each structure is given as a SMILES string.

The term EC50 denotes the concentration that produces a half-maximal response. Read a high EC50 as a need for much substance. One may read the IC50 as the point on the concentration scale where inhibition reaches its midpoint.

T1 sequence (P56817 46-457 limits assumed): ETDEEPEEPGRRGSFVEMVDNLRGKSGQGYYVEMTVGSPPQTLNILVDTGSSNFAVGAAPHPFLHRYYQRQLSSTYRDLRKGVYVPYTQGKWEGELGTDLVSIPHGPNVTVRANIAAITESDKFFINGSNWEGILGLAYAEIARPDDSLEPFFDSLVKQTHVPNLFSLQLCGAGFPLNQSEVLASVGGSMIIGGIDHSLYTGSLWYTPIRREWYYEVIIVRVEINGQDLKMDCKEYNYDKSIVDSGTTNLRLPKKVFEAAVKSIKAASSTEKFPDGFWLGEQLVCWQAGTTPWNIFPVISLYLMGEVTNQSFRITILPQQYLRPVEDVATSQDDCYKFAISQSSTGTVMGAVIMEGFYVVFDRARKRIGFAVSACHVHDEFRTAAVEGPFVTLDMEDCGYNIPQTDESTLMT

In experiment [1], `O=C(Nc1nc2cc(-c3cccc(C(F)(F)F)c3)ccc2[nH]1)c1cn2c(CNCCCO)cccc2n1` [Example 171, 5-[(3-Hydroxy-propylamino)-methyl]-imidazo[1,2-a]pyridine-2-carboxylic acid [5-(3-trifluoromethyl-phenyl)-1H-benzoimidazol-2-yl]-amide] yielded a half-maximal effective concentration (EC50) of 4.26 µM. Besides, the IC50 against BACE-1 enzyme is 0.71 µM.
The compound `CCN(C)Cc1ccn2cc(C(=O)Nc3nc4cc(-c5cccc(C(F)(F)F)c5)ccc4[nH]3)nc2c1` [Example 205, 7-[(Ethyl-methyl-amino)-methyl]-imidazo[1,2-a]pyridine-2-carboxylic acid [5-(3-trifluoromethyl-phenyl)-1H-benzoimidazol-2-yl]-amide] displayed an EC50 in experiment [1] of 3.2 µM. Besides, on BACE-1 enzyme, 0.59 µM corresponded to half-maximal inhibition (IC50).
On to `O=C(Nc1nc2cc(-c3cccc(C(F)(F)F)c3)ccc2[nH]1)c1cn2cc(CO)ccc2n1` [Example 177, 6-Hydroxymethyl-imidazo[1,2-a]pyridine-2-carboxylic acid [5-(3-trifluoromethyl-phenyl)-1H-benzoimidazol-2-yl]-amide], for which the EC50 in experiment [1] came out at 1.03 µM. For the same compound, the concentration for half-maximal inhibition (IC50) at BACE-1 enzyme was determined as 0.3 µM.
As to `Cc1cc(-c2ccc3[nH]c(NC(=O)c4cn5c(C)cccc5n4)nc3c2)ccc1Cl` [Example 99, 5-Methyl-imidazo[1,2-a]pyridine-2-carboxylic acid [5-(4-chloro-3-methyl-phenyl)-1H-benzoimidazol-2-yl]-amide], a half-maximal response in experiment [1] (EC50) required 0.12 µM. In addition, half-maximal inhibition against BACE-1 enzyme (IC50) required 0.27 µM.
On to `Cc1cccc2nc(C(=O)Nc3nc4cc(-c5cccc(OC(F)(F)F)c5)ccc4[nH]3)cn12` [Example 46, 5-Methyl-imidazo[1,2-a]pyridine-2-carboxylic acid [5-(3-trifluoromethoxy-phenyl)-1H-benzoimidazol-2-yl]-amide], for which, in experiment [1], the EC50 was 0.63 µM. The compound further registered an IC50 against BACE-1 enzyme of 0.26 µM.
In the same order, the values of `Cc1cccn2cc(C(=O)Nc3nc4cc(-c5ccc(F)c(Cl)c5)ccc4[nH]3)nc12` [Example 65, 8-Methyl-imidazo[1,2-a]pyridine-2-carboxylic acid [5-(3-chloro-4-fluoro-phenyl)-1H-benzoimidazol-2-yl]-amide] are 0.96 µM and 0.3 µM.
Compound `CN(C)c1cccc2nc(C(=O)Nc3nc4cc(-c5cccc(C(F)(F)F)c5)ccc4[nH]3)cn12` [Example 121, 5-Dimethylamino-imidazo[1,2-a]pyridine-2-carboxylic acid [5-(3-trifluoromethyl-phenyl)-1H-benzoimidazol-2-yl]-amide] had an EC50 in experiment [1] of 0.37 µM. On BACE-1 enzyme, this compound came in with an IC50 of 0.67 µM.
In the same order, the values of `CCOc1ccc(-c2ccc3[nH]c(NC(=O)c4cn5c(C)cccc5n4)nc3c2)cc1F` [Example 80, 5-Methyl-imidazo[1,2-a]pyridine-2-carboxylic acid [5-(4-ethoxy-3-fluoro-phenyl)-1H-benzoimidazol-2-yl]-amide] are 1.32 µM and 0.81 µM.
In the same order, the values of `Cc1cccc2nc(C(=O)Nc3nc4cc(CCc5ccc(C(F)(F)F)cc5)ccc4[nH]3)cn12` [Example 62, 5-Methyl-imidazo[1,2-a]pyridine-2-carboxylic acid {5-[2-(4-trifluoromethyl-phenyl)-ethyl]-1H-benzoimidazol-2-yl}-amide] are 0.87 µM and 0.4 µM.
Compound `O=C(Nc1nc2cc(-c3cccc(C(F)(F)F)c3)ccc2[nH]1)c1cn2cccc(CO)c2n1` [Example 192, 8-Hydroxymethyl-imidazo[1,2-a]pyridine-2-carboxylic acid [5-(3-trifluoromethyl-phenyl)-1H-benzoimidazol-2-yl]-amide] had an EC50 in experiment [1] of 2.56 µM. Also, half-maximal inhibition against BACE-1 enzyme (IC50) was put at 0.4 µM.
`O=C(Nc1nc2cc(-c3cccc(C(F)(F)F)c3)ccc2[nH]1)c1cn2ccc(CNCC(O)c3ccccc3)cc2n1` (stereo not shown) [Example 206, 7-[(2-Hydroxy-2-phenyl-ethylamino)-methyl]-imidazo[1,2-a]pyridine-2-carboxylic acid [5-(3-trifluoromethyl-phenyl)-1H-benzoimidazol-2-yl]-amide] returned an EC50 in experiment [1] of 7.43 µM. Further, the IC50 against BACE-1 enzyme is 0.44 µM.
In the same order, the values of `O=C(Nc1nc2cc(-c3ccc(F)c(C(F)(F)F)c3)ccc2[nH]1)c1cn2c(C(F)(F)F)cccc2n1` [Example 55, 5-Trifluoromethyl-imidazo[1,2-a]pyridine-2-carboxylic acid [5-(4-fluoro-3-trifluoromethyl-phenyl)-1H-benzoimidazol-2-yl]-amide] are 2.36 µM and 0.26 µM.
Consider `O=C(Nc1nc2cc(-c3cccc(C(F)(F)F)c3)ccc2[nH]1)c1cn2ccccc2n1` [Example 115, Imidazo[1,2-a]pyridine-2-carboxylic acid [5-(3-trifluoromethyl-phenyl)-1H-benzoimidazol-2-yl]-amide], for which, in experiment [1], the response was half-maximal at 1.43 µM (EC50). This compound also yielded an IC50 against BACE-1 enzyme of 0.37 µM.
In experiment [1], `O=C(Nc1nc2cc(-c3cccc(C(F)(F)F)c3)ccc2[nH]1)c1cn2c(CNCCN3CCOCC3)cccc2n1` [Example 169, 5-[(2-Morpholin-4-yl-ethylamino)-methyl]-imidazo[1,2-a]pyridine-2-carboxylic acid [5-(3-trifluoromethyl-phenyl)-1H-benzoimidazol-2-yl]-amide] came in with a concentration for a half-maximal effect (EC50) of 5.23 µM. Besides, at BACE-1 enzyme, 0.42 µM corresponded to half-maximal inhibition (IC50).
In the same order, the values of `COCCNC(=O)c1cccc2nc(C(=O)Nc3nc4cc(-c5cc(F)cc(Cl)c5)ccc4[nH]3)cn12` [Example 228] are 1.34 µM and 0.28 µM.
In the case of `Cc1cccn2cc(C(=O)Nc3nc4cc(-c5cccc(C(F)(F)F)c5)ccc4[nH]3)nc12` [Example 32, 8-Methyl-imidazo[1,2-a]pyridine-2-carboxylic acid [5-(3-trifluoromethyl-phenyl)-1H-benzoimidazol-2-yl]-amide], the EC50 in experiment [1] worked out at 1.36 µM. Moreover, the 50% inhibitory concentration (IC50) against BACE-1 enzyme amounted to 0.52 µM.
In the same order, the values of `Cc1cccc2nc(C(=O)Nc3nc4ccc(-c5cc(F)cc(Cl)c5)cc4[nH]3)cn12` [Example 56, 5-Methyl-imidazo[1,2-a]pyridine-2-carboxylic acid [6-(3-chloro-5-fluoro-phenyl)-1H-benzoimidazol-2-yl]-amide] are 0.24 µM and 0.28 µM.
On to `CCOc1cccc(-c2ccc3[nH]c(NC(=O)c4cn5c(C)cccc5n4)nc3c2)c1` [Example 35, 5-Methyl-imidazo[1,2-a]pyridine-2-carboxylic acid [5-(3-ethoxy-phenyl)-1H-benzoimidazol-2-yl]-amide], for which the EC50 in experiment [1] was found to be 2.3 µM. Besides, the IC50 against BACE-1 enzyme was found to be 0.82 µM.
For `O=C(Nc1nc2cc(-c3cccc(C(F)(F)F)c3)ccc2[nH]1)c1cn2ccc(CNCc3ccncc3)cc2n1` [Example 204, 7-{[(Pyridin-4-ylmethyl)-amino]-methyl}-imidazo[1,2-a]pyridine-2-carboxylic acid [5-(3-trifluoromethyl-phenyl)-1H-benzoimidazol-2-yl]-amide], the concentration giving a half-maximal response (EC50) in experiment [1] amounted to 2.37 µM. The compound further yielded a 50% inhibitory concentration (IC50) against BACE-1 enzyme of 0.47 µM.
`CN1CCN(Cc2cccn3cc(C(=O)Nc4nc5cc(-c6cccc(C(F)(F)F)c6)ccc5[nH]4)nc23)CC1` [Example 194, 8-(4-Methyl-piperazin-1-ylmethyl)-imidazo[1,2-a]pyridine-2-carboxylic acid [5-(3-trifluoromethyl-phenyl)-1H-benzoimidazol-2-yl]-amide]: the midpoint of the response in experiment [1], the EC50, lay at 6.27 µM. This compound also registered an IC50 against BACE-1 enzyme of 0.87 µM.
